Among the data in ChEMBL document CHEMBL1129807, “Design and synthesis of 3,5-dialkylamino substituted 8H,10H-3(R),5(R),15b(S)-2,3,6,7-tetrahydro-1,5,3-dioxazepino[3,2-c]indolo[3,2-g]pteridine-7-ones” (Bioorg Med Chem Lett, 1997) are IC50 values, retold here.

pIC50: −log10 of the molar value.

This assay deals with L1210. Put plainly: The compound was tested in vitro for growth inhibitory activity against murine leukemia L1210 cells. It is filed as functional, cell-based. The note with it: Mus musculus.
For `CN(C)CCCN(C)C[C@H]1CO[C@H]2c3nc4c5ccccc5n(C)c4nc3N(C)C(=O)N2[C@@H](CN(C)CCCN(C)C)O1`, the pIC50 was 4.62. With `CN1CCC(N(C)C[C@H]2CO[C@H]3c4nc5c6ccccc6n(C)c5nc4N(C)C(=O)N3[C@@H](CN(C)C3CCN(C)CC3)O2)CC1`, the pIC50 is 5.40. `CCN(CC)C[C@H]1CO[C@H]2c3nc4c5ccccc5n(C)c4nc3NC(=O)N2[C@@H](CN(CC)CC)O1`: the pIC50 is 4.77. In the case of `CN1CCN(C[C@H]2CO[C@H]3c4nc5c6ccccc6n(C)c5nc4N(C)C(=O)N3[C@@H](CN3CCN(C)CC3)O2)CC1`, the pIC50 is 4.70. `Cc1c2ccncc2c(C)c2c1[nH]c1ccccc12` [ELLIPTECINE] showed a pIC50 of 6.30. `CCN(CC)C[C@H]1CO[C@H]2c3nc4c5ccccc5n(C)c4nc3N(C)C(=O)N2[C@@H](CN(CC)CC)O1`: the pIC50 was 5.22.
